The values that follow come from US8263601B2, “Deuterium substituted xanthine derivatives” (CoNCERT Pharmaceuticals, Inc., priority 2009, dated 2012).

Where two headings read alike, the source gives them in different places.

On the set-up of data set [1]: species or system male beagle dogs. The settings on record: male, beagle, dog, in vivo, po. As to the method: This study was similar to those described in Examples 34a and 34b, except that Compound 413 was evaluated. Four male beagle dogs were orally dosed by gavage with a mixture containing 2 mg/mL each of pentoxifylline and Compound 413 in saline. Blood samples were taken as in Example 34b.

Details of data set [2]: species or system beagle dogs. The settings on record: dog, in vivo, po. The procedure:
Example 34a was repeated with additional monitoring of the pentoxifylline and Compound 409 metabolites. In this experiment Compound 409 and pentoxifylline were dissolved separately in saline to a concentration of 4.4 and 4 mg/mL respectively. A 1:1 (v/v) mixture of the two solutions was prepared to yield a solution having a final concentration of 2.2 mg/mL of Compound 409 and 2 mg/mL pentoxifylline. Post-dosing data analysis included adjustments to account for the 10% difference in dosing concentration between compound 409 and pentoxifylline.
Four beagle dogs (2-3 years of age, and weighed 5 to 8 kg) were fasted overnight and then orally dosed via gavage with 2.75 mg/kg Compound 409 and 2.5 mg/kg pentoxifylline using the mixture described above. Blood samples (approximately 1 mL) were collected via femoral vein at 0 min (pre-dose), 5 min, 15 min, 30 min, 45 min, 1 hr, 1.5 hr, 2 hr, 3 hr, 4 hr, and 6 hr post-dose. Blood was stored on ice prior to centrifugation to obtain plasma samples. Centrifugation took place within 15 minutes of blood collection to harvest plasma (maximum volume). The plasma was decanted immediately and frozen/stored at −20° C. until analysis.
Plasma samples were analyzed by LC-MS/MS for the presence of the administered compound and its corresponding M1 metabolite:
The results from one of the four dogs (Dog H, FIG. 1b) were inconsistent with that of the other three. […] It was concluded that this dog was most likely improperly gavaged and that the compounds were probably administered through the trachea, rather than into the GI tract as would have been desired. Accordingly, the data from this dog was excluded from the analyses.

Data set [3] is described as follows: Compound stability in human liver microsomes (Example 36). It counts as in vitro ADME. As to conditions: human liver microsomes 2.0 mg/mL, 5 μM, NADPH, 30 minutes, FIG. 5 columns A and B. As to the method:
Example 36 is similar to Example 35 in design, except that human liver microsomes were used instead of rat whole blood to study the metabolism of the compounds.
Human liver microsomes (20 mg/mL) were obtained from Xenotech, LLC (Lenexa, Kans.). β-nicotinamide adenine dinucleotide phosphate, reduced form (NADPH), magnesium chloride (MgCl2), and dimethyl sulfoxide (DMSO) were purchased from Sigma-Aldrich.
Stock solutions containing 7.5 mM of test compounds (pentoxifylline, (S)-M1 metabolite, (R)-M1 metabolite, Compound 409, Compound 435(S), and Compound 435(R)) were prepared in DMSO. The 7.5-mM stock solutions were diluted to 250 μM in acetonitrile (ACN). The human liver microsomes were diluted to 2.5 mg/mL in 0.1 M potassium phosphate buffer, pH 7.4, containing 3 mM MgCl2. The diluted microsomes were added to wells of a 96-well deep-well polypropylene plate in triplicate. 10 μL of the 250 μM test compound was added to the microsomes and the mixture was pre-warmed to 37° C. for 10 minutes. Reactions were initiated by addition of pre-warmed NADPH solution. The final reaction volume was 0.5 mL and contained 2.0 mg/mL human liver microsomes, 5 μM test compound, and 2 mM NADPH in 0.1M potassium phosphate buffer, pH 7.4, and 3 mM MgCl2. The reaction mixtures were incubated at 37° C., and 50-μL aliquots were removed at 0, 5, 10, 20, and 30 minutes and added to shallow-well 96-well plates which contained 50 μL of ice-cold acetonitrile with internal standard to stop the reactions. The plates were stored at 4° C. for 20 minutes after which 100 μL of water was added to the wells of the plate before centrifugation to pellet precipitated proteins. Supernatants were transferred to another 96-well plate and analyzed for the amount of the administered compound and its specific metabolite (listed in Table 11 above) by LC-MS/MS using an Applied Bio-systems API 4000 mass spectrometer.
The results of this study are depicted in FIGS. 4 and 5. […]
For orientation: Liver microsomes are a subcellular fraction often used to study metabolism.

The nature of data set [4]: in vivo. As to conditions: male, beagle, dog, po. On the set-up: species or system male beagle dogs. The procedure:
Metabolism of the title compounds were studied following oral administration to male beagle dogs. Blood samples were removed from dosed dogs at various time points and plasma isolated therefrom. The plasma samples were used for the determination of plasma drug levels by LC-MS/MS (liquid chromatography with tandem mass spectrometry) for estimating pharmacokinetic parameters.
Compound 409 and pentoxifylline were dissolved separately in saline to a concentration of 4 mg/mL. A 1:1 (v/v) mixture of the two solutions was prepared to yield a solution having a final concentration of 2 mg/mL of both Compound 409 and pentoxifylline.
Two male beagle dogs were fasted overnight and then orally dosed via gavage with 2.5 mg/kg of Compound 409 and pentoxifylline using the mixture described above. Blood samples (1.5-2 mL) were collected via the femoral vein at 0 min (pre-dose), 15 min, 30 min, 45 min, 1 hr, 1.5 hr, 2 hr, 3 hr, 4 hr, 6 hr, 8 hr, 10 hr, 12 hr, 16 hr and 24 hr post-dose. Blood was stored on ice prior to centrifugation to obtain plasma samples. Centrifugation took place within 1 hour of blood collection to harvest plasma (maximum volume). The plasma was decanted immediately and frozen/stored at −70° C. until analysis.

The nature of data set [5]: Stability of compounds in rat whole blood (Example 35). It counts as in vitro ADME. As to conditions: 5 μM, 37° C.; for Keto-compound (pentoxifylline or Compound 409) formed from M-1 alcohol: 2 hours, FIG. 3. As to the method: This study was performed to evaluate the stability of the title compounds in rat whole blood. Because the ketone (or keto-compound; either pentoxifylline or 409) and its corresponding M-1 alcohol metabolite interconvert, levels of these components were measured after either the keto-compound was added to the blood or the M-1 was added. In other words, in some tests the keto-compound was the starting test compound and in other tests an M-1 metabolite was the starting test compound.
Fresh rat whole blood was obtained from ViviSource Laboratories, Waltham, Mass. Stock solutions (7.5 millimolar (mM)) of test compounds were prepared in dimethyl sulfoxide (DMSO). The 7.5 mM stock solutions were diluted to 500 micromolar (μM) in acetonitrile (ACN). To 990 microliters (μL) of blood pre-warmed to 37° C. for 7 minutes was added 10 μl, of 500 μM test compound to a final concentration of 5 μM. The test compounds were pentoxifylline, (S)-M1 metabolite of pentoxifylline, (R)-M1 metabolite of pentoxifylline, Compound 409, Compound 435(S), and Compound 435(R). The latter two test compounds are deuterated (S)-M1 and (R)-M1 metabolites, respectively, of Compound 409. The reaction mixture was incubated at 37° C. Aliquots (50 μL) were removed at 0 min, 5 min, 15 min, 30 min, 1 hour and 2 hours following the addition of test compound and added to 96-well plates containing 150 μL of ice cold acetonitrile with an internal standard to stop the reaction. The plates were stored at −20° C. for 20 minutes after which 100 μL of 50% acetonitrile/water was added to the wells of the plate prior to centrifugation to pellet precipitated proteins. A 200-μL aliquot of each supernatant was transferred to another 96-well plate and analyzed by LC-MS/MS using an Applied Bio-systems API 4000 mass spectrometer for amounts of the administered compound and its specific metabolite listed in Table 11 below.
The results of this study are depicted in FIGS. 2 and 3.

For `[2H]c1nc2c(c(=O)n(CCCC([2H])([2H])C(=O)C([2H])([2H])[2H])c(=O)n2C([2H])([2H])[2H])n1C([2H])([2H])[2H]` [Compound 413, 8-d1-3,7-Di(methyl-d3)-1-(4,4,6,6,6-d5-5-oxohexyl)-1H-purine-2,6(3H,7H)-dione], in data set [1], the “% Difference in Ave. AUC (deuterated vs nondeuterated species)” value (“% Difference in Ave. AUC” below) is on record as “+74%” and the “% Difference in Ave. Cmax (deuterated vs nondeuterated species)” value (“% Difference in Ave. Cmax” below) was “+47%”.

`[2H]c1nc2c(c(=O)n(CCCC([2H])([2H])C(O)C([2H])([2H])[2H])c(=O)n2C)n1C([2H])([2H])[2H]` (racemic) [Compound 419, (±)-8-d1-1-(4,4,6,6,6-d5-5-Hydroxyhexyl)-3-methyl-7-(methyl-d3)-1H-purine-2,6(3H,7H)-dione]: in data set [2], the “Overall systemic exposure to M1 metabolite compared to M1 following dosing of pentoxifylline” value is given as “greater”.

Take `[2H]c1nc2c(c(=O)n(CCCC([2H])([2H])C(=O)C([2H])([2H])[2H])c(=O)n2C)n1C([2H])([2H])[2H]` [Compound 409, 8-d1-3-methyl-7-(methyl-d3)-1-(6-d3-4-d2-5-oxohexyl)-1H-purine-2,6(3H,7H)-dione]: the “Amount of (S)-M1 type metabolite (Compound 419(S)) formed from keto-compound, compared to (S)-M1 formed from pentoxifylline” value in data set [3] is on record as “similar”. Moreover, in data set [4], the “% Difference in Ave. AUC” value is “+80%” and the “% Difference in Ave. Cmax” value was “+57%”. For the same compound, in data set [4] (2.5 mg/kg), the area under the curve (AUC) (in general, the area under the concentration-time curve, a measure of exposure) turned out to be 811 ng·h/mL and the peak level (Cmax) was 1230 ng/mL. In addition, in data set [5] (approximately 2 hours, FIG. 3 columns A and B), the “Amount of (S)-M1 type metabolite (Compound 419(S)) formed from keto-compound, compared to (S)-M1 formed from pentoxifylline” value is given as “similar”. In data set [2] (beagle), the “% Difference in Ave. AUC” value is on record as “+97%” and the “% Difference in Ave. Cmax” value was “+80%”. Also, the “Clearance from the plasma compared to pentoxifylline” value in data set [2] is “more slowly cleared”.

For `[2H]c1nc2c(c(=O)n(CCCC([2H])([2H])[C@]([2H])(O)C([2H])([2H])[2H])c(=O)n2C)n1C([2H])([2H])[2H]` [Compound 435(R), (R)-8-d1-1-(4,4,5,6,6,6-d6-5-Hydroxyhexyl)-3-methyl-7-(methyl-d3)-1H-purine-2,6(3H,7H)-dione], in data set [5], the “Keto-compound (pentoxifylline or Compound 409) formed from M-1 alcohol” value is “not detected”.

For `C[C@@H](O)CCCCn1c(=O)c2c(ncn2C)n(C)c1=O` [(R)-M1, reference compound], in data set [5], the “Keto-compound (pentoxifylline or Compound 409) formed from M-1 alcohol” value is reported as “No metabolism of (R)-M1 to pentoxifylline was detected”.
